{"source": "patent US11773086B2", "about": "“Fungal modulators” (TRUSTEES OF BOSTON UNIVERSITY, priority 2020, dated 2023)", "key": {"C. auris": {"tested_on": "C. auris", "experiment": "Intracellular fluconazole and azoffluxin detection by LC-MS", "format": "cell-based, Candida auris", "conditions": "combination treatment vs high fluconazole alone, 1 hour", "source_text": "FIGS. 3A-3B, and 4A-4B illustrate azoffluxin increases fluconazole (FLC) bioavailability by inhibiting Cdr1-mediated efflux in C. auris, as described above. FIG. 3A depicts the relative abundance of specific sterols determined in C. auris after an 18-hour treatment with the respective compounds (⋅ indicates combo treatment concentrations) using LC-MS. Values are plotted relative to the internal standard of cholesterol and error bars indicate standard deviation between technical triplicates. Significance was determined by an unpaired student t-test of each condition to untreated, (*) indicates a p-value<0.05 and (**) indicates a p-value<0.01. FIG. 3B depicts the intracellular concentrations of FLC and azoffluxin measured after treatment for 1 hour (conditions as in FIG. 3A) Error bars indicate standard deviation between technical triplicates. Significance was determined by an unpaired student t-test, (**) indicates a p-value<0.01. FIG. 4A depicts the quantified relative expression of a panel of putative efflux pumps in C. auris Ci6684. Expression of CDR1 (B9J08_000164), MDR1 (B9J08_003981), CDR4-1 (B9J08_000479), CDR4-2 (B9J08_002451), SNQ2-1 (B9J08_001125), and SNQ2-2 (B9J08_004452) was measured by RT-qPCR. […] FIG. 4B depicts expression of CDR1 (B9J08_000164) and CDR4-1 (B9J08_000479) measured by quantitative real-time PCR (RT-qPCR). […]"}, "293T cells": {"tested_on": "293T cells", "experiment": "293T cells grown without C. auris (luciferase signal)", "format": "cell-based, human", "conditions": "293T cells without C. auris, any treatment condition", "experimental": "FIG. 10A depicts mammalian embryonic kidney (293T) cells expressing luciferase used to quantify mammalian cell growth in co-culture. Mammalian cells were seeded in 384-well plates in DMEM medium at 5×10^5 cells/mL overnight. After 24 hours the indicated concentration of compound (⋅ indicates combo treatment concentrations) was added along with 2.5×10^3 cells/mL of C. auris. Co-cultures were incubated for 48 hours at 37° C. and then the luminescence was measured as an output of mammalian cell growth. Error represents standard deviation between technical quadruplicates, (***) indicates a p-value<0.001 between 293T cells alone and co-culture growth for each condition. […] FIG. 10C depicts checkerboard assays performed as described in FIG. 2B with C. auris Clade IV isolate B11801. Relative growth was measured after 24 hours using OD600 and normalized to no-drug control wells (see color bar). The FICI calculated for each checkerboard is shown in the top right of each plot, with values<0.5 indicating synergy. FIG. 10D depicts kidney fungal burden (CFU) in mice from each treatment group (n=3) that had been infected with C. auris B11801. […] The significance of differences between combination treatment and treatment with each compound alone was determined by two-tailed unpaired student t-test, (***) p-value<0.001. […]"}}}
{"smiles": "C=C(C)C[C@@H](O)COc1cc2c(cc1C1(c3cc4c(cc3OC[C@H](O)CC(=C)C)OCO4)C(=O)Nc3cc(F)ccc31)OCO2", "note": "[CMLD012336]", "values": [{"measurement": "increase in intracellular fluconazole", "setting": "C. auris", "result": "~2.5", "unit": "fold"}, {"measurement": "mammalian cytotoxicity", "setting": "293T cells", "result": "no detectable mammalian cytotoxicity"}]}
